Measured values from patent US4038401A, “Novel indole derivative” (John Wyeth & Brother Limited, priority 1976, dated 1977).
Like-named read-outs stand apart in the source and are kept apart here.

Assays:
[1] = system: rats; format: in vivo, rat; settings: for Duration of sedation: 50 mg/kg; for Increase in comparative sedation: oral 10, 25 or 50 mg/kg, perphenazine and haloperidol rated at 10
Method: Twelve rats of each type were split into […] and dosed orally with 10, 25 or 50 mg/kg of the test compound in a vehicle comprising hydroxymethylcellulose (0.5%) in (0.9% saline). Each rat was housed singly, after dosing and observed closely for 2 hours, then intermittently for a further four hours, behavioural changes being noted.
The animals were left at least 72 hours before re-dosing to ensure the disappearance of residual hypotensive and sedative effects.

[2] = system: rats rendered hypertensive; assay: Anti-hypertensive activity in renal hypertensive rats (systolic pressure); format: in vivo, rat; settings: 12 rats
Method: Anti-hypertensive activity is determined by the following procedure:
Male or female rats are rendered hypertensive by applying a figure of 8 ligature around one kidney and contralateral nephrectomy. Blood pressure stabilises at a hypertensive level after 6 weeks. Systolic pressure is measured indirectly using an E and M Pneumatic Tail Pulse Transducer and a Devices M2 recorder. A control group of rats is run with each group reacted with drug. Each group usually consists of six rats. Drugs are usually administered by the IP or oral routes. Pressures are read prior to drug administration and at 2 and 24 hours thereafter.
Blood pressure is expressed as % of control values at x hours after an oral dose of 25 mg/kg. In the test 12 rats were used instead of the usual 6.

[3] = Hypotensive and anti-hypertensive activity (statement in words); format: in vivo; settings: compared with indoramin
[4] = in vivo; settings: mouse
[5] = system: laboratory animals; assay: Toxicity and sedation, tests in laboratory animals (statement in words); settings: compared with indoramin
[6] = normotensive rat (male and female)
[7] = renal hypertensive rat (female)
[8] = spontaneous hypertensive rat (male)
[9] = 2 hours after oral dose of 25 mg/kg
[10] = 6 hours after oral dose of 25 mg/kg
[11] = 24 hours after oral dose of 25 mg/kg

## O=C(NC1CCN(CCCC(=O)c2c[nH]c3ccccc23)CC1)c1ccccc1 [4-Benzamido-1-[4-(indol-3-yl)-4-oxobutyl]piperidine]
[1]; [6]
  Duration of sedation: 6 h
  Approximate sedative potency ratio: 1
[1]; [7]
  Duration of sedation: 6 h
  Approximate sedative potency ratio: 1
[1]; [8]
  Duration of sedation: 6 h
  Approximate sedative potency ratio: 1
[1]; normotensive rats
  Increase in comparative sedation: 1
[1]; renal hypertensive rats
  Increase in comparative sedation: 2
[1]; spontaneously hypertensive rats
  Increase in comparative sedation: 1
[2]; [9]
  Blood pressure expressed as % of control values: 60.9 % of control values
[2]; [10]
  Blood pressure expressed as % of control values: 62.0 % of control values
[2]; [11]
  Blood pressure expressed as % of control values: 99.0 % of control values
[3]
  hypotensive and anti-hypertensive activity: comparable to that of indoramin
[4]; ip
  LD50: 542 mg/kg
  LD50 at 24 h: 1000 mg/kg
[4]; po
  LD50: > 4000 mg/kg
  LD50 at 24 h: > 4000 mg/kg
[5]
  sedation: much less sedative
  toxicity: much less toxic

## O=C(NC1CCN(CCc2c[nH]c3ccccc23)CC1)c1ccccc1 [Indoramin, 3-[2(4-benzamidopiperid-1-xl)ethyl] indole, reference compound]
[2]; [9]
  Blood pressure expressed as % of control values: 78.0 % of control values
[2]; [10]
  Blood pressure expressed as % of control values: 76.0 % of control values
[2]; [11]
  Blood pressure expressed as % of control values: 98.0 % of control values

## O=C(CCCN1CCC(O)(c2ccc(Cl)cc2)CC1)c1ccc(F)cc1 [haloperidol, reference compound]
[1]; rats, reference rating of the scale
  Sedation rating of comparison tranquillisers: 10

## OCCN1CCN(CCCN2c3ccccc3Sc3ccc(Cl)cc32)CC1 [perphenazine, reference compound]
[1]; rat, in vivo
  Sedation rating of comparison tranquillisers: 10
